Patent US9156801B2, “2-substituted oleanolic acid derivative, method preparing for same, and application thereof” (HANGZHOU BENSHENG PHARMACEUTICAL CO., LTD., priority 2011, dated 2015)
In brackets after ≈: the same amount, converted by molar mass.

Experiments:
H9 cell line = experiment: leukemia cell growth inhibition, MTT; type: cell-based; conditions: Homo sapiens; for IC50: H9, 72 h; for inhibition at 16 µg/mL: H9, 16 μg/mL compound, 72 h, read-out: IR (cell proliferation inhibition rate)
Source text: (§1) Leukemia cell lines: leukemia cell lines: K562/adr (drug-resistant, chronic myeloid leukemia, CML), NB4 (acute promyelocytic leukemia, AML), Kasumi-1 (acute myeloid leukemia M2 type, AML-M2), Jurkat (acute lymphoblastic leukemia, ALL), all of which are donated by Cancer Research Institute of Zhejiang University, China; and H9 (acute lymphoblastic leukemia, ALL), which is purchased from China Center for Type Culture Collection (CCTCC).
(§2) Obtaining 6000 well-growing leukemia cells and inoculating them into wells of a 96-well cell culture plate. The culture medium is the 1640 cell culture medium containing 10% fetal bovine serum. After adding the 2-substituted oleanolic acid derivatives of different concentrations and mixing uniformly, placing the plate in a carbon dioxide cell incubator (5% CO2) at 37° C. and incubated for 72 hours. Then the relative number of viable cells is determined by MTT method. In this experiment, cell proliferation inhibition rate in control group (not treated with any compound) is set as 0%.

Jurkat cell line = experiment: leukemia cell growth inhibition, MTT; type: cell-based; conditions: Homo sapiens, 72 h; for inhibition at 16 µg/mL: 16 μg/mL compound, read-out: IR (cell proliferation inhibition rate)
Source text: as §1, §2

K562/adr cell line = experiment: leukemia cell growth inhibition, MTT; type: cell-based; conditions: Homo sapiens, 72 h; for IC50: K562/Adr; for inhibition at 16 µg/mL: K562/adr, 16 μg/mL compound, read-out: IR (cell proliferation inhibition rate)
Source text: as §1, §2

Kasumi-1 cell line = experiment: leukemia cell growth inhibition, MTT; type: cell-based; conditions: Homo sapiens; for inhibition at 16 µg/mL: Kasumi-1, 16 μg/mL compound, 72 h, read-out: IR (cell proliferation inhibition rate); for IC50: Kasumi-1, 72 h
Source text: as §1, §2

NB4 cell line = experiment: leukemia cell growth inhibition, MTT; type: cell-based; conditions: Homo sapiens, NB-4; for inhibition at 16 µg/mL: NB4, 16 μg/mL compound, 72 h, read-out: IR (cell proliferation inhibition rate); for IC50: NB4, 72 h
Source text: as §1, §2

RPMI8226 cell line = experiment: multiple myeloma cell growth inhibition, MTT; type: cell-based; conditions: Homo sapiens, RPMI-8226; for inhibition at 16 µg/mL: RPMI8226, 16 μg/mL compound, 72 h, read-out: IR (cell proliferation inhibition rate); for IC50: RPMI8226, 72 h
Procedure: Multiple myeloma cell lines: RPMI8226 (multiple myeloma), purchased from Fuxiang Bio-tech Co. Ltd., Shanghai, China.
Obtaining 6000 well-growing cells as above and inoculating them into wells of a 96-well cell culture plate. The culture medium is the 1640 cell culture medium containing 10% fetal bovine serum. After adding the 2-substituted oleanolic acid derivatives of different concentrations and mixing uniformly, placing the plate in a carbon dioxide cell incubator (5% CO2) at 37° C. and incubated for 72 hours. Then the relative number of viable cells is determined by MTT method. In this experiment, cell proliferation inhibition rate in control group (not treated with any compound) is set as 0%.

Hep G2 cell line = experiment: solid tumor cell growth inhibition, MTT; type: cell-based, human; conditions: Homo sapiens; for inhibition at 16 µg/mL: HepG2, 72 h, Hep G2, 16 μg/mL compound, 72 h, read-out: IR (cell proliferation inhibition rate); for IC50: HepG2, Hep G2, 72 h
Procedure: (§3) Hep-2 (laryngeal carcinoma), A549 (human lung cancer), CaES-17 (esophageal cancer cell), PC-3 (prostate cancer), CNE (nasopharyngeal carcinoma cell), and SK-OV-3 (ovarian cancer cell), all of which are purchased from China Center For Type Culture Collection; RKO (human colon adenocarcinoma cell), MGC 803 (human gastric cancer cell), MG63 (osteosarcoma) and U87 MG (malignant glioma cell), all of which are purchased from Fuxiang Bio-tech Co. Ltd., Shanghai, China; PANC-1 (pancreatic cancer), Hep G2 (human liver cancer cell), Becap37 (human breast cancer cell), and Hela (human cervical cancer cell), all of which are donated by Cancer Research Institute of Zhejiang University, China.
(§4) Obtaining 4000 well-growing human solid tumor cells and inoculating them into wells of a 96-well cell culture plate. The culture medium is DMEM High Glucose cell culture medium containing 10% fetal bovine serum. The plate is placed in a carbon dioxide cell incubator (5% CO2) at 37° C. for 24 hours. After adding the 2-substituted oleanolic acid derivatives of different concentrations and mixing uniformly, the plate is placed in a carbon dioxide cell incubator (5% CO2) at 37° C. and incubated for 72 hours. Then the relative number of the living cells is determined by MTT method. In this experiment, the cell proliferation inhibition rate in control group (not treated with any compound) is set as 0%.

A549 cell line = experiment: solid tumor cell growth inhibition, MTT; type: cell-based; conditions: Homo sapiens; for IC50: A549, 72 h; for inhibition at 16 µg/mL: A549, 16 μg/mL compound, 72 h, read-out: IR (cell proliferation inhibition rate)
Procedure: as §3, §4

Becap37 cell line = experiment: solid tumor cell growth inhibition, MTT; type: cell-based; conditions: Homo sapiens; for inhibition at 16 µg/mL: Becap37, 16 μg/mL compound, 72 h, read-out: IR (cell proliferation inhibition rate); for IC50: Becap37, 72 h
Procedure: as §3, §4

CNE cell line = experiment: solid tumor cell growth inhibition, MTT; type: cell-based; conditions: Homo sapiens, 72 h; for inhibition at 16 µg/mL: 16 μg/mL compound, read-out: IR (cell proliferation inhibition rate)
Procedure: as §3, §4

CaES-17 cell line = experiment: solid tumor cell growth inhibition, MTT; type: cell-based; conditions: Homo sapiens, CaEs17; for inhibition at 16 µg/mL: CaES-17, 16 μg/mL compound, 72 h, read-out: IR (cell proliferation inhibition rate); for IC50: CaES-17, 72 h
Procedure: as §3, §4

Hela cell line = experiment: solid tumor cell growth inhibition, MTT; type: cell-based; conditions: Homo sapiens, 72 h; for IC50: HeLa; for inhibition at 16 µg/mL: Hela, 16 μg/mL compound, read-out: IR (cell proliferation inhibition rate)
Procedure: as §3, §4

Hep-2 cell line = experiment: solid tumor cell growth inhibition, MTT; type: cell-based; conditions: Homo sapiens; for IC50: HEp-2, 72 h; for inhibition at 16 µg/mL: Hep-2, 16 μg/mL compound, 72 h, read-out: IR (cell proliferation inhibition rate)
Procedure: as §3, §4

MG-63 cell line = experiment: solid tumor cell growth inhibition, MTT; type: cell-based; conditions: Homo sapiens; for IC50: MG-63, 72 h; for inhibition at 16 µg/mL: MG-63, 16 μg/mL compound, 72 h, read-out: IR (cell proliferation inhibition rate)
Procedure: as §3, §4

MGC 803 cell line = experiment: solid tumor cell growth inhibition, MTT; type: cell-based; conditions: Homo sapiens; for inhibition at 16 µg/mL: MGC 803, 16 μg/mL compound, 72 h, read-out: IR (cell proliferation inhibition rate); for IC50: MGC 803, 72 h
Procedure: as §3, §4

PANC-1 cell line = experiment: solid tumor cell growth inhibition, MTT; type: cell-based; conditions: Homo sapiens; for IC50: PANC-1, 72 h; for inhibition at 16 µg/mL: PANC-1, 16 μg/mL compound, 72 h, read-out: IR (cell proliferation inhibition rate)
Procedure: as §3, §4

PC-3 cell line = experiment: solid tumor cell growth inhibition, MTT; type: cell-based; conditions: Homo sapiens; for IC50: PC-3, 72 h; for inhibition at 16 µg/mL: PC-3, 16 μg/mL compound, 72 h, read-out: IR (cell proliferation inhibition rate)
Procedure: as §3, §4

RKO cell line = experiment: solid tumor cell growth inhibition, MTT; type: cell-based; conditions: Homo sapiens, 72 h; for inhibition at 16 µg/mL: 16 μg/mL compound, read-out: IR (cell proliferation inhibition rate)
Procedure: as §3, §4

SK-OV-3 cell line = experiment: solid tumor cell growth inhibition, MTT; type: cell-based; conditions: Homo sapiens; for IC50: SK-OV-3, 72 h; for inhibition at 16 µg/mL: SK-OV-3, 16 μg/mL compound, 72 h, read-out: IR (cell proliferation inhibition rate)
Procedure: as §3, §4

U87 MG cell line = experiment: solid tumor cell growth inhibition, MTT; type: cell-based; conditions: Homo sapiens, U-87 MG, 72 h; for inhibition at 16 µg/mL: 16 μg/mL compound, read-out: IR (cell proliferation inhibition rate)
Procedure: as §3, §4

Which results are given for `COC(=O)[C@]12CCC(C)(C)C[C@H]1C1=CC[C@@H]3[C@@]4(C)CC(C(=O)NCCN5CCCCC5)C(=O)C(C)(C)[C@@H]4CC[C@@]3(C)[C@]1(C)CC2` (some centres unmarked) [BS-OA-004]?
IC50 (H9 cell line): 5.67 µg/mL (≈ 9.1 µM); inhibition at 16 µg/mL (H9 cell line): 98.2%; inhibition at 16 µg/mL (Jurkat cell line): 97.7%; IC50 (Jurkat cell line): 6.15 µg/mL (≈ 9.87 µM); IC50 (K562/adr cell line): 2.41 µg/mL (≈ 3.87 µM); inhibition at 16 µg/mL (K562/adr cell line): 98.3%; inhibition at 16 µg/mL (Kasumi-1 cell line): 99.6%; IC50 (Kasumi-1 cell line): 6.5 µg/mL (≈ 10.4 µM); inhibition at 16 µg/mL (NB4 cell line): 100%; IC50 (NB4 cell line): 2.84 µg/mL (≈ 4.56 µM); inhibition at 16 µg/mL (RPMI8226 cell line): 98.3%; IC50 (RPMI8226 cell line): 2.08 µg/mL (≈ 3.34 µM); inhibition at 16 µg/mL (Hep G2 cell line): 100%; IC50 (Hep G2 cell line): 4.89 µg/mL (≈ 7.85 µM); IC50 (A549 cell line): 7.7 µg/mL (≈ 12.4 µM); inhibition at 16 µg/mL (A549 cell line): 92%; inhibition at 16 µg/mL (Becap37 cell line): 43.9%; IC50 (Becap37 cell line): > 16 µg/mL; inhibition at 16 µg/mL (CNE cell line): 97.3%; IC50 (CNE cell line): 8.46 µg/mL (≈ 13.6 µM); inhibition at 16 µg/mL (CaES-17 cell line): 81.2%; IC50 (CaES-17 cell line): 8.88 µg/mL (≈ 14.3 µM); IC50 (Hela cell line): 9.28 µg/mL (≈ 14.9 µM); inhibition at 16 µg/mL (Hela cell line): 99.4%; IC50 (Hep-2 cell line): 10.1 µg/mL (≈ 16.2 µM); inhibition at 16 µg/mL (Hep-2 cell line): 85.5%; IC50 (MG-63 cell line): 8.37 µg/mL (≈ 13.4 µM); inhibition at 16 µg/mL (MG-63 cell line): 99%; inhibition at 16 µg/mL (MGC 803 cell line): 98.1%; IC50 (MGC 803 cell line): 7.32 µg/mL (≈ 11.8 µM); IC50 (PANC-1 cell line): 8.77 µg/mL (≈ 14.1 µM); inhibition at 16 µg/mL (PANC-1 cell line): 94.1%; IC50 (PC-3 cell line): 9.91 µg/mL (≈ 15.9 µM); inhibition at 16 µg/mL (PC-3 cell line): 89.8%; inhibition at 16 µg/mL (RKO cell line): 98.9%; IC50 (RKO cell line): 7.4 µg/mL (≈ 11.9 µM); IC50 (SK-OV-3 cell line): 9.14 µg/mL (≈ 14.7 µM); inhibition at 16 µg/mL (SK-OV-3 cell line): 94.9%; inhibition at 16 µg/mL (U87 MG cell line): 98%; IC50 (U87 MG cell line): 10 µg/mL (≈ 16.1 µM)

What does the source list for `COC(=O)[C@]12CCC(C)(C)CC1C1=CCC3[C@@]4(C)CC(C(=O)NCCN5CCCC5)C(=O)C(C)(C)C4CC[C@@]3(C)[C@]1(C)CC2` (some centres unmarked) [BS-OA-005]?
IC50 (H9 cell line): 3.16 µg/mL (≈ 5.19 µM); inhibition at 16 µg/mL (H9 cell line): 96.2%; inhibition at 16 µg/mL (Jurkat cell line): 98.1%; IC50 (Jurkat cell line): 2.33 µg/mL (≈ 3.83 µM); IC50 (K562/adr cell line): 1.16 µg/mL (≈ 1.91 µM); inhibition at 16 µg/mL (K562/adr cell line): 100%; inhibition at 16 µg/mL (Kasumi-1 cell line): 99.8%; IC50 (Kasumi-1 cell line): 3.98 µg/mL (≈ 6.54 µM); inhibition at 16 µg/mL (NB4 cell line): 100%; IC50 (NB4 cell line): 2.73 µg/mL (≈ 4.48 µM); inhibition at 16 µg/mL (RPMI8226 cell line): 99.2%; IC50 (RPMI8226 cell line): 0.69 µg/mL (≈ 1.13 µM); inhibition at 16 µg/mL (Hep G2 cell line): > 96%; IC50 (Hep G2 cell line): 2.53 µg/mL (≈ 4.15 µM); IC50 (A549 cell line): 2.19 µg/mL (≈ 3.6 µM); inhibition at 16 µg/mL (A549 cell line): 96.8%; inhibition at 16 µg/mL (Becap37 cell line): 98.6%; IC50 (Becap37 cell line): 5.68 µg/mL (≈ 9.33 µM); inhibition at 16 µg/mL (CNE cell line): 98.6%; IC50 (CNE cell line): 3.65 µg/mL (≈ 5.99 µM); inhibition at 16 µg/mL (CaES-17 cell line): 98.9%; IC50 (CaES-17 cell line): 3.34 µg/mL (≈ 5.49 µM); IC50 (Hela cell line): 4.05 µg/mL (≈ 6.65 µM); inhibition at 16 µg/mL (Hela cell line): 98.6%; IC50 (Hep-2 cell line): 5.09 µg/mL (≈ 8.36 µM); inhibition at 16 µg/mL (Hep-2 cell line): 99.2%; IC50 (MG-63 cell line): 2.31 µg/mL (≈ 3.79 µM); inhibition at 16 µg/mL (MG-63 cell line): 99.7%; inhibition at 16 µg/mL (MGC 803 cell line): 99.3%; IC50 (MGC 803 cell line): 2.7 µg/mL (≈ 4.43 µM); IC50 (PANC-1 cell line): 4.54 µg/mL (≈ 7.46 µM); inhibition at 16 µg/mL (PANC-1 cell line): 97.8%; IC50 (PC-3 cell line): 5.11 µg/mL (≈ 8.39 µM); inhibition at 16 µg/mL (PC-3 cell line): 99.2%; inhibition at 16 µg/mL (RKO cell line): 98.7%; IC50 (RKO cell line): 3.19 µg/mL (≈ 5.24 µM); IC50 (SK-OV-3 cell line): 4.23 µg/mL (≈ 6.95 µM); inhibition at 16 µg/mL (SK-OV-3 cell line): 98.3%; inhibition at 16 µg/mL (U87 MG cell line): 100%; IC50 (U87 MG cell line): 2.5 µg/mL (≈ 4.11 µM)
